Data on four compounds can be found in BindingDB's records for doi:10.1016/j.bmcl.2021.128001 (The First Affiliated Hospital of Anhui Medical University, 2021).

Molecules are shown by their SMILES.

The target in this assay is T1, Peptidase (Staphylococcus aureus, UniProt Q7DHH4).
T1 sequence (Q7DHH4 whole entry): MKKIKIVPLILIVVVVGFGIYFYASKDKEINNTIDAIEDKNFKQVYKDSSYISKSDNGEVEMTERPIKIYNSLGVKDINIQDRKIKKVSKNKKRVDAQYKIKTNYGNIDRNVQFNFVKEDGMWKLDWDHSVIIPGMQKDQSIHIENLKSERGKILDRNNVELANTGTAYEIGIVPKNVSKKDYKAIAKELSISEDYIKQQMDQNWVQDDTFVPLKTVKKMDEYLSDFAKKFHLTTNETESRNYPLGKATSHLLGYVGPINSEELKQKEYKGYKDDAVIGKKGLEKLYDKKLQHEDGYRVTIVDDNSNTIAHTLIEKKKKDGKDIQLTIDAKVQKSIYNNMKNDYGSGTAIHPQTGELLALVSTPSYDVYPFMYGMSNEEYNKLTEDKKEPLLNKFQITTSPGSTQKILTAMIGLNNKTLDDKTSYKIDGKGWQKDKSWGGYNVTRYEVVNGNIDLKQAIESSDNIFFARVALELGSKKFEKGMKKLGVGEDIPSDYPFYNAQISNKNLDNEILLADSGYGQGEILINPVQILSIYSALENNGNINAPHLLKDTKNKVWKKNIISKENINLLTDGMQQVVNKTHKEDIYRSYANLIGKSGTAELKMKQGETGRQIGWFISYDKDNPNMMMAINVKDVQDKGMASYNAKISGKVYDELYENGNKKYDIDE
The experiment in a line: Binding affinity to Staphylococcus aureus PBP2a assessed as dissociation constant by SPR assay.
The koff is the first-order rate constant of dissociation. With `COc1ccc(NC(=O)[C@H]2Oc3c(c(=O)oc4ccccc34)[C@@H]2c2ccc(CCCN3CCCC3=O)cc2)cc1`, the koff amounted to 0.0284 s⁻¹. Turning to `Cc1ccc(NC(=O)[C@H](Cc2c[nH]c3ccccc23)NC(=O)C2CCN(C(=O)CNC(=O)OC(C)(C)C)CC2)cc1`, the koff came to 0.0253 s⁻¹.

`COc1ccc(-c2cc(=O)oc3c(C)c(OCC(=O)N[C@@H](Cc4c[nH]c5ccc(O)cc45)C(=O)O)ccc23)cc1`: the koff is 0.0214 s⁻¹.

Regarding `COc1cc2c(c(OC)c1OC)-c1ccc(NCC(=O)NCCc3c[nH]c4ccccc34)c(=O)cc1[C@@H](NC(C)=O)CC2`, the koff stood at 0.0207 s⁻¹.
